# Patent publication US20170226139A1, “CRYSTALLINE SALTS OF (Z)-O-OCTADEC-9-EN-1-YL O,O-DIHYDROGEN PHOSPHOROTHIOATE” (priority 2013, published 2017)
# Like-named read-outs stand apart in the source and are kept apart here.
# Key:
# [1] = target: LPA2 receptors from the rhesus (Macaca mulatta, UniProt I2CXV3); test: Calcium-mobilization assay (FURA-2), rhesus LPA2; type: cell-based
# Procedure: (§1) We investigated structure-activity relationships across species, LPAR subtypes and between Rx100 and two known process impurities encountered in manufacture: Rx103 (‘E’ isomer) and Rx200 (oleyl phosphate and impurity, which can be an Rx100 degradant along with oleyl alcohol). Rx100, Rx103, Rx200 and native LPA were investigated at different human LPAR subtypes. In addition, the activity of these compounds was evaluated at LPA2 receptors from the rhesus, rat and mouse species. Human LPA1/2/3 subtypes were transfected into mouse embryonic fibroblasts (MEF) or rat hepatoma cells (RH7777)—both of which are normally non-responsive or null to LPA. Human LPA4 was transfected into Chinese hamster ovary (CHO) cells and LPA5 into the B103 neuroblastoma cell line. […] The B103 rat neuroblastoma cell line is endogenously nonresponsive to LPA but expresses heterologous LPA5 receptors well. […] LPAR activation elicits a G-protein-mediated transient rise in intracellular calcium level that is proportional to the concentration of LPA applied. The intracellular calcium level was quantified by the calcium-selective fluorescent indicator FURA-2 (e.g., increased intracellular calcium surge=increased fluorescence).
# [2] = target: T1, Human LPA1 (Homo sapiens, UniProt Q92633); test: Calcium-mobilization assay (FURA-2), human LPA1 transfected cells; type: cell-based; conditions: for EC50: EC50 [nM], mean
# T1 construct: expressed in transfected cells; host or cells: mouse embryonic fibroblasts (MEF)
# Procedure: as §1
# T1 sequence (Q92633 whole entry): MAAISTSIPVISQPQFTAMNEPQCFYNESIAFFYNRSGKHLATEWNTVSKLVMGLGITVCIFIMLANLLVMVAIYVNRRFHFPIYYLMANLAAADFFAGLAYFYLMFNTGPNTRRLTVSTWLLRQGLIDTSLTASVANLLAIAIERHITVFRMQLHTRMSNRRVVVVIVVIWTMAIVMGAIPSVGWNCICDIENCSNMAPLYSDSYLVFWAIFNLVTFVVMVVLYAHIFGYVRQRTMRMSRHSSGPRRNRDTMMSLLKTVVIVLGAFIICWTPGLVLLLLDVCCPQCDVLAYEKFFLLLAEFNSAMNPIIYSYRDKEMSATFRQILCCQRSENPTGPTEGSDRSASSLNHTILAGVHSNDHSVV
# Chain of LPA2 receptors from the rhesus (I2CXV3 1-351): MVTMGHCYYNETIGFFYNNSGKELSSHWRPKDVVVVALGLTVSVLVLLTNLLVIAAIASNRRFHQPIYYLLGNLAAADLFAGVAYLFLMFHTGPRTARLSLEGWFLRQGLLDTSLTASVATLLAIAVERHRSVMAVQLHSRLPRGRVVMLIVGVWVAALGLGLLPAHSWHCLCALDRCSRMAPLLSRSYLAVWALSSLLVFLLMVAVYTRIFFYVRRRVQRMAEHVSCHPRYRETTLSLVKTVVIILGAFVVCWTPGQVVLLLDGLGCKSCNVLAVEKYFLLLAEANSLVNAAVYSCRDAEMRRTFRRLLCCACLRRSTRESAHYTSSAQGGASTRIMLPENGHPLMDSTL
compound,measurement,setting,value
"CCCCCCCC/C=C\CCCCCCCCOP(O)(O)=S [Rx100, (Z)—O-octadec-9-en-1-yl O,O-dihydrogen phosphorothioate]",EC50,[1],104 nM
same,Emax,[1]; read-out: Emax (% of LPA),100%
same,EC50,"[2]; LPA1 DKO MEF, human",273 nM
same,EC50,"[2]; LPA1 RH7777, human",1030 nM
same,Emax,"[2]; RH7777, read-out: Emax (% of LPA)",69%
same,Emax,[2]; read-out: Emax (% of LPA),70%
